Source: PubChem BioAssay AID330 (DTP/NCI, 2004)
Toxic doses and inconclusive results are not listed.

System: P388 leukemia ip, CD2F1 mice, survival T/C
Assay: NCI In Vivo Anticancer Drug Screen. Data for tumor model P388 Leukemia (intraperitoneal) in CD2F1 (CDF1) mice
Conditions: endpoint: median survival time, higher = longer survival
In short: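 Mice carrying the transplanted tumor received test compound or vehicle. Survival was recorded in each group, and the value is the treated-group measurement divided by that of the vehicle-treated control group.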

[1] = dose: 50.0 mg/kg/injection, schedule: Q01DX005 (ip), vehicle: Klucel (hydroxypropylcellulose) (HPC)
[2] = dose: 100.0 mg/kg/injection, schedule: Q01DX005 (ip), vehicle: Klucel (hydroxypropylcellulose) (HPC)
[3] = dose: 50.0 mg/kg/injection, schedule: Q01DX001 (ip), vehicle: Klucel (hydroxypropylcellulose) (HPC)
[4] = dose: 50.0 mg/kg/injection, schedule: Q01DX009 (ip), vehicle: Klucel (hydroxypropylcellulose) (HPC)
[5] = dose: 100.0 mg/kg/injection, schedule: Q01DX009 (ip), vehicle: Klucel (hydroxypropylcellulose) (HPC)

With CCCCC(NC(=O)OC(C)(C)C)C(=O)O (stereo not given) the T/C [1] was 98 % of control, the T/C [2] was 99 % of control and the T/C (dose: 200.0 mg/kg/injection, schedule: Q01DX005 (ip), vehicle: Klucel (hydroxypropylcellulose) (HPC)) was 104 % of control.
With CC1=C(O)C(=O)C(C)=C(O)C1=O the T/C (dose: 12.5 mg/kg/injection, schedule: Q01DX001 (ip), vehicle: Klucel (hydroxypropylcellulose) (HPC)) was 112 % of control, the T/C (dose: 25.0 mg/kg/injection, schedule: Q01DX001 (ip), vehicle: Klucel (hydroxypropylcellulose) (HPC)) was 112 % of control and the T/C [3] was 111 % of control.
COC(=O)/C(=C1/OC(=O)C(c2ccc(Cl)cc2)=C1O)c1ccc(OC)cc1 was tested, and the T/C [1] was 102 % of control and the T/C [2] was 94 % of control.
With CC(C)(C)n1nc(C2CC2)c(Br)c1NC(=O)c1ccc(Cl)cc1 the T/C (dose: 30.0 mg/kg/injection, schedule: Q01DX005 (ip), vehicle: Klucel (hydroxypropylcellulose) (HPC)) was 109 % of control, the T/C (dose: 60.0 mg/kg/injection, schedule: Q01DX005 (ip), vehicle: Klucel (hydroxypropylcellulose) (HPC)) was 96 % of control and the T/C (dose: 120.0 mg/kg/injection, schedule: Q01DX005 (ip), vehicle: Klucel (hydroxypropylcellulose) (HPC)) was 101 % of control. For the same compound, the T/C (dose: 240.0 mg/kg/injection, schedule: Q01DX005 (ip), vehicle: Klucel (hydroxypropylcellulose) (HPC)) was 98 % of control.
With CCCOc1ccc2c(NCCCCCCCCNc3c4ccccc4nc4cc(OCCC)ccc34)c3ccccc3nc2c1 the T/C (dose: 0.63 mg/kg/injection, schedule: Q01DX009 (ip), vehicle: other) was 109 % of control, the T/C (dose: 1.25 mg/kg/injection, schedule: Q01DX009 (ip), vehicle: lactic acid) was 162 % of control and the T/C (dose: 7.5 mg/kg/injection, schedule: Q01DX009 (ip), vehicle: other) was 90 % of control.
With O=C(CCl)c1ccc2c(c1)N(C(=O)COc1ccccc1)c1ccccc1S2 the T/C [3] was 89 % of control, the T/C (dose: 100.0 mg/kg/injection, schedule: Q01DX001 (ip), vehicle: Klucel (hydroxypropylcellulose) (HPC)) was 91 % of control and the T/C (dose: 200.0 mg/kg/injection, schedule: Q01DX001 (ip), vehicle: Klucel (hydroxypropylcellulose) (HPC)) was 96 % of control.
In the case of COc1ccc(Cc2cc3c(cc2OCCO)OCO3)cc1, the T/C (dose: 50.0 mg/kg/injection, schedule: Q01DX005 (ip), vehicle: saline with Tween-80) was 105 % of control, the T/C (dose: 100.0 mg/kg/injection, schedule: Q01DX005 (ip), vehicle: saline with Tween-80) was 103 % of control and the T/C (dose: 200.0 mg/kg/injection, schedule: Q01DX005 (ip), vehicle: saline with Tween-80) was 109 % of control.
With CNC(=O)Nc1ccc(/C(C)=N/NC(N)=S)cc1 the T/C (dose: 60.0 mg/kg/injection, schedule: Q01DX005 (ip), vehicle: saline with Tween-80) was 96 % of control and the T/C (dose: 120.0 mg/kg/injection, schedule: Q01DX005 (ip), vehicle: saline with Tween-80) was 89 % of control.
With CCCCCCCCCCN1COC2Cc3ccccc3CC21 (stereo not given) the T/C (dose: 50.0 mg/kg/injection, schedule: Q01DX005 (ip), vehicle: saline) was 99 % of control, the T/C (dose: 100.0 mg/kg/injection, schedule: Q01DX005 (ip), vehicle: saline) was 100 % of control and the T/C (dose: 200.0 mg/kg/injection, schedule: Q01DX005 (ip), vehicle: saline) was 100 % of control.
With Nc1cccc(SC(CC(=O)c2ccc(-c3ccccc3)cc2)c2ccco2)c1 (stereo not given) the T/C [4] was 97 % of control and the T/C [5] was 101 % of control.
With Cc1nn(-c2ccccc2)c2c1C(c1ccc([N+](=O)[O-])cc1)C(C#N)=C(N)O2 (stereo not given) the T/C [4] was 102 % of control, the T/C [5] was 90 % of control and the T/C (dose: 200.0 mg/kg/injection, schedule: Q01DX009 (ip), vehicle: Klucel (hydroxypropylcellulose) (HPC)) was 107 % of control.
With COc1cc(/C=C2\SC(=S)N(CCCN3CCOCC3)C2=O)ccc1O the T/C (dose: 50.0 mg/kg/injection, schedule: Q01DX009 (ip), vehicle: saline with Tween-80) was 91 % of control.
For COc1cc2c(cc1O)CCCC=C2C1CCCCc2cc(O)c(OC)cc21 (stereo not given), the T/C (dose: 100.0 mg/kg/injection, schedule: Q01DX009 (ip), vehicle: saline with Tween-80) was 104 % of control, the T/C (dose: 200.0 mg/kg/injection, schedule: Q01DX009 (ip), vehicle: saline with Tween-80) was 94 % of control and the T/C (dose: 400.0 mg/kg/injection, schedule: Q01DX009 (ip), vehicle: saline with Tween-80) was 91 % of control.
COc1c(Br)cnc2ccccc12 was tested, and the T/C (dose: 12.5 mg/kg/injection, schedule: Q01DX009 (ip), vehicle: distilled water + Tween-80) was 96 % of control, the T/C (dose: 25.0 mg/kg/injection, schedule: Q01DX009 (ip), vehicle: distilled water + Tween-80) was 96 % of control and the T/C (dose: 50.0 mg/kg/injection, schedule: Q01DX009 (ip), vehicle: distilled water + Tween-80) was 102 % of control. The T/C (dose: 100.0 mg/kg/injection, schedule: Q01DX009 (ip), vehicle: distilled water + Tween-80) was 102 % of control and the T/C (dose: 200.0 mg/kg/injection, schedule: Q01DX009 (ip), vehicle: distilled water + Tween-80) was 93 % of control.
